The source of these data is article PMC7355684 (Pharmaceutics, 2020).

Entries after “also recorded” stand apart in the source; their conditions may differ. Where two headings read alike, the source gives them in different places. Where a SMILES comes first, the peptide text is derived from it. Side-chain parts run from the residue outwards. The star is where a group is joined. Daunorubicin(13-NOCH2CO) = COc1cccc2c1C(=O)c1c(O)c3c(c(O)c1C2=O)C[C@@](O)(C(C)=NOCC(=O)*)C[C@@H]3O[C@H]1C[C@H](N)[C@H](O)[C@H](C)O1

In data set [1] the test system is Colo-205 cells. Format: cell-based, human. As for the experimental part: (§1) EBC-1 and Colo-205 model cells have weak/negligible adherent properties, and A2058 cells could not produce constant cell index values. Therefore, a colorimetric assay (alamarBlue-assay) was chosen instead of the xCELLigence system to investigate the viability of these model cells treated with the conjugates. Due to the growth characteristics of NHDF cells, alamarBlue-assay was performed also on this cell line.
(§2) The protocol for the alamarBlue-assay was similar to the method which was published earlier, with some minor modifications. Briefly, the cell seeding occurred on 96-well cell culture plates (Sarstedt AG, Nümbrecht, Germany) at 10^4 cells/well concentration. After a 24 h long culturing period, the treatment was carried out with the conjugates at 10^−4, 10^−5 and 10^−6 M final concentrations for 24, 48 and 72 h. In the next steps, the alamarBlue reagent (0.15 mg/mL, Sigma-Aldrich) dissolved in phosphate-buffered saline (PBS; pH = 7.2), was added to the wells. After 6 h incubation with the reagent, the fluorescence intensity of the samples was obtained by an LS-50B Luminescence Spectrometer (Perkin Elmer Ltd., Buckinghamshire, UK) or a Fluoroskan^TM FL Microplate Fluorometer and Luminometer (Thermo Scientific, Waltham, MA, USA) by using the following settings: λex = 560 nm and λem = 590 nm.
(§3) Three parallels were performed per treatment group. In the case of controls, an equivalent volume of cell culture media was added to the cell. Fluorescence intensities of the samples treated with various concentrations of conjugates were expressed as a percentage of the fluorescence of control.

Data set [2] deals with A2058 cells. In kind it is cell-based, human. As for the experimental part:
as §1, §2, §3

Data set [3] concerns EBC-1 cells. Format: cell-based, human. The method, then: as §1, §2, §3
Data set [4] has as its system PANC-1 cells. Briefly: cells. In kind it is cell-based, human. As for the experimental part:
This measurement is based on the registration of electrical resistance (impedance, Z) in alternating current (AC) field. The living cells transplanted to the gold measuring electrodes are physically insulated by phospholipid bilayer that covers them. This instrumentally measurable property changes (decreases) in response to cellular cytotoxic agents. Our measurements were performed on xCELLigence single plate (ACEA Biosciences, San Diego, CA, USA) dedicated for impedimetric analysis of cellular samples at 37 °C and 5% CO2.
During the initial phase of the experiments—the baseline recording—a special 96-well cell culture plate, E-plate (ACEA Biosciences), equipped with measuring electrodes, was pretreated with freshly prepared cell culture medium (for 60 min; sampling frequency: 1 min). Subsequently, PANC-1 cells were plated at a cell density of 10^4 cells/well. During the 24 h incubation, the cells evenly covered the electrodes at the bottom of the wells of the E-plate. The resulting confluent cell cultures were then treated with the test substances at the following final concentrations: 10^−6, 10^−5, 10^−4 M. Total treatment duration was 72 h and the sampling rate was 1 min (0–24 h); and then 15 min (48–72 h). In our measurements, three replicates were used, the control was the drug-free medium. […] The CI results were analyzed with xCELLigence RTCA 2.0 software and Origin Pro 8.0 software.

Data set [5] can be described thus: Lysosomal degradation of conjugates by LC-MS. The note with it: rat liver lysosome homogenate, 0.2 M NaOAc pH 5.03, 0.025 μg/μL conjugate, 37 °C; for Time to complete lysosomal degradation: sampling up to 72 h. Format: in vitro ADME. The method, then:
For the stability and metabolism studies of the conjugates, liquid chromatography–mass spectrometry (LC-MS) analyses were performed on a Q ExactiveTM Focus, high resolution and high mass accuracy, hybrid quadrupole-orbitrap mass spectrometer (Thermo Fisher Scientific, Bremen, Germany) using on-line UHPLC coupling. UHPLC separation was performed on a Dionex 3000 UHPLC system using a Supelco Ascentis C18 column (2.1 × 150 mm, 3 µm). Linear gradient elution (0 min 2% B, 1 min 2% B, 17 min 90% B) with eluent A (0.1% HCOOH in water, v/v) and eluent B (0.1% HCOOH in acetonitrile/water, 80:20, v/v) was used at a flow rate of 0.2 mL/min at 40 °C. High-resolution mass spectra were acquired in the 200–1600 m/z range. LC-MS data were analyzed by XcaliburTM software (Thermo Fisher Scientific) and with Origin Pro 8 (OriginLab Corp., Northampton, MA, USA).
Conjugates were dissolved in distilled water in 2.5 μg/μL concentration followed by dilution with 0.2 M NaOAc solution (pH = 5.03) to 0.025 μg/μL. The lysosome-homogenate was prepared from rat liver and contained proteins in 16.6 μg/μL concentration. An aliquot (20 μL) of this stock solution was further diluted with […] 0.2 M NaOAc solution, therefore the final protein concentration was 0.83 μg/μL. To prepare the reaction mixture, 15 μL (0.83 μg/μL) lysosome homogenate was added to 500 μL (0.025 μg/μL) conjugate solution. Furthermore, a control reaction mixture was always prepared which contained 500 μL conjugate solution and 15 μL NaOAc solution only. The solutions were stirred on 600 rpm at 37 °C and samples (50 μL) were taken out at 0 min, 5 min, 15 min, 30 min, 1 h, 2 h, 6 h, 24 h, and 72 h. The enzymatic activity was quenched by adding 5 μL formic acid to the samples. After this procedure, samples were frozen immediately at −25 °C. Control samples were taken at 0 min, 15 min, 1 h, 6 h, 24 h and 72 h. Composition of the samples was determined by HPLC-MS as described above.

Data set [6] in a line: lysosome-homogenate prepared from rat liver, in 0.2 M NaOAc solution (pH = 5.03). The note with it: 37 °C, up to 72 h.
Where [7] appears, read: alamarBlue fluorescence normalized to control wells, 10^-5 M, mean ± SD, n=3.
Setting [8] is: PANC-1, impedimetry, cell index normalized to control wells, 10^−5 M, mean ± SD, n = 3.

Consider `COc1cccc2c1C(=O)c1c(O)c3c(c(O)c1C2=O)C[C@@](O)(C(C)=NOCC(=O)NCC(=O)N[C@@H](Cc1ccccc1)C(=O)N[C@@H](CC(C)C)C(=O)NCC(=O)N[C@@H](CCCCN)C(=O)N[C@@H](CO)C(=O)N[C@@H](CCCCN)C(=O)N[C@@H](C)C(=O)N[C@@H](C)C(=O)N[C@@H](CCCCN)C(=O)N[C@@H](CC(N)=O)C(=O)O)C[C@@H]3O[C@H]1C[C@H](N)[C@H](O)[C@H](C)O1` [conjugate 3, Dau=Aoa-GFLG-KSKAAKN-OH] ({Daunorubicin(13-NOCH2CO)}-GFLGKSKAAKN-OH), for which the “Viability (%) at 10-5 M concentration, after 72 h incubation, Colo-205” value (“Viability (%) at 10-5 M concentration … Colo-205” for short) in data set [1] (setting [7]) stood at 59.3 ± 3.6%. For the same compound, the “Viability (%) at 10-5 M concentration, after 72 h incubation, A2058” value (“Viability (%) at 10-5 M concentration … A2058” for short) in data set [2] (setting [7]) was 79.4 ± 17.6%. Also, in data set [3] (setting [7]), the “Viability (%) at 10-5 M concentration, after 72 h incubation, EBC-1” value (from here on “Viability (%) at 10-5 M concentration … EBC-1”) amounted to 76.2 ± 13.7%. Besides, the “Viability (%) at 10^−5 M Concentration, After 72 h Incubation” value (from here on “Viability (%) at 10^−5 M Concentration”) in data set [4] (setting [8]) was found to be 105.1 ± 1.9%. Moreover, in data set [5], the “Time to complete lysosomal degradation” value is on record as at most 1 h.

Regarding Dau=Aoa-KSKAAKN-OH, the fragment found entry in data set [6] is given as “Dau=Aoa-K-OH, minor, 30 min; also recorded: Dau=Aoa-KS-OH, 15 min; also recorded: Dau=Aoa-KSK-OH”.

For Dau=Aoa-GFLG-K(Dau=Aoa-GFLG)SKAAKN-OH, the fragment found result in data set [6] is on record as “Dau=Aoa-G-OH, minor; also recorded: Dau=Aoa-GF-OH; also recorded: Dau=Aoa-GFL-OH; also recorded: H-K(Dau=Aoa-GFLG)SK-OH; also recorded: H-K(Dau=Aoa-GFLG)SKAA-OH; also recorded: H-K(Dau=Aoa-GFLG)SKAAKN-OH”.

For `COc1cccc2c1C(=O)c1c(O)c3c(c(O)c1C2=O)C[C@@](O)(C(C)=NOCC(=O)N[C@@H](CO)C(=O)N[C@@H](CCCCN)C(=O)N[C@@H](C)C(=O)N[C@@H](C)C(=O)N[C@@H](CCCCN)C(=O)N[C@@H](CC(N)=O)C(=O)O)C[C@@H]3O[C@H]1C[C@H](N)[C@H](O)[C@H](C)O1` [conjugate 1, Dau=Aoa-SKAAKN-OH] ({Daunorubicin(13-NOCH2CO)}-SKAAKN-OH), in data set [1] (1e-5 M), the “Viability (%) at 10-5 M concentration … Colo-205” value came to 50.7 ± 1.6%. Also, in data set [2] (1e-5 M), the “Viability (%) at 10-5 M concentration … A2058” value turned out to be 61.5 ± 2.7%. The “Viability (%) at 10-5 M concentration … EBC-1” value in data set [3] (1e-5 M) was determined as 77.8 ± 1.0%. The “Viability after 24 h treatment at 10^−4 M (initial CI increase)” value in data set [4] (24 h, 1e-4 M) came to 224.1 ± 18.73%. Besides, in data set [4] (1e-5 M), the “Viability (%) at 10^−5 M Concentration” value is 112.5 ± 5.1%.

On to Dau=Aoa-SKAAKN-OH, for which the fragment found result in data set [6] was “Dau=Aoa-S-OH, 0 min; also recorded: Dau=Aoa-SK-OH, 0 min”.

For Dau=Aoa-GFLG-KSKAAKN-OH, in data set [6], the fragment found result was “Dau=Aoa-GFL-OH; also recorded: Dau=Aoa-GFLGK-OH; also recorded: Dau=Aoa-GFLGKSK-OH, first_seen, 0 min; also recorded: Dau=Aoa-GFLGKSKAA-OH, first_seen, 0 min; also recorded: Dau=Aoa-G-OH, 30 min; also recorded: Dau=Aoa-GF-OH, major, 30 min”.

On to `COc1cccc2c1C(=O)c1c(O)c3c(c(O)c1C2=O)C[C@@](O)(C(C)=NOCC(=O)N[C@@H](CCCCN)C(=O)N[C@@H](CO)C(=O)N[C@@H](CCCCN)C(=O)N[C@@H](C)C(=O)N[C@@H](C)C(=O)N[C@@H](CCCCN)C(=O)N[C@@H](CC(N)=O)C(=O)O)C[C@@H]3O[C@H]1C[C@H](N)[C@H](O)[C@H](C)O1` [conjugate 2, Dau=Aoa-KSKAAKN-OH] ({Daunorubicin(13-NOCH2CO)}-KSKAAKN-OH), for which the “Speed of lysosomal degradation (in words)” value in data set [5] is given as “very fast”.

`COc1cccc2c1C(=O)c1c(O)c3c(c(O)c1C2=O)C[C@@](O)(C(C)=NOCC(=O)N[C@@H](CO)C(=O)N[C@@H](CCCCN)C(=O)N[C@@H](C)C(=O)N[C@@H](C)C(=O)N[C@@H](CCCCN)C(=O)N[C@@H](CC(N)=O)C(=O)O)C[C@@H]3O[C@H]1C[C@H](N)[C@H](O)[C@H](C)O1` [conjugates 1] ({Daunorubicin(13-NOCH2CO)}-SKAAKN-OH): the “Speed of lysosomal degradation (in words)” value in data set [5] was “very fast”.

As to `COc1cccc2c1C(=O)c1c(O)c3c(c(O)c1C2=O)C[C@@](O)(C(C)=NOCC(=O)NCC(=O)N[C@@H](Cc1ccccc1)C(=O)N[C@@H](CC(C)C)C(=O)NCC(=O)NCCCC[C@H](NC(=O)CNC(=O)[C@H](CC(C)C)NC(=O)[C@H](Cc1ccccc1)NC(=O)CNC(=O)CON=C(C)[C@]1(O)Cc2c(O)c4c(c(O)c2[C@@H](O[C@H]2C[C@H](N)[C@H](O)[C@H](C)O2)C1)C(=O)c1c(OC)cccc1C4=O)C(=O)N[C@@H](CO)C(=O)N[C@@H](CCCCN)C(=O)N[C@@H](C)C(=O)N[C@@H](C)C(=O)N[C@@H](CCCCN)C(=O)N[C@@H](CC(N)=O)C(=O)O)C[C@@H]3O[C@H]1C[C@H](N)[C@H](O)[C@H](C)O1` [conjugate 5, Dau=Aoa-GFLG-K(Dau=Aoa-GFLG)SKAAKN-OH] ({Daunorubicin(13-NOCH2CO)}-GFLGK([Gly-Leu-Phe-Gly-Daunorubicin(13-NOCH2CO)])SKAAKN-OH), the “Viability (%) at 10-5 M concentration … Colo-205” value in data set [1] (setting [7]) came out at 45.8 ± 2.6%. Moreover, the “Viability (%) at 10-5 M concentration … A2058” value in data set [2] (setting [7]) is 61.9 ± 11.6%. Further, the “Viability (%) at 10-5 M concentration … EBC-1” value in data set [3] (setting [7]) amounted to 57.6 ± 11.1%. Moreover, the “Viability (%) at 10^−5 M Concentration” value in data set [4] (setting [8]) is listed as 31.3 ± 1.8%. Further, in data set [4] (PANC-1, impedimetry, 10^−5 M, 24 h (Figure 1A)), the “Viability after 24 h” value is reported as 34%. Also, the “Time to complete lysosomal degradation” value in data set [5] is over 72 h.
